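Abbreviation: GI50, concentration required for 50% inhibition of growth. TGI is the concentration that stops growth completely.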
Legend:
Experiment in all cases: NCI anticancer screen, dose series, 384-well format
[1] = test system: 786-0 renal
[2] = test system: A498 renal
[3] = test system: A549 NSCLC
[4] = test system: ACHN renal
[5] = test system: BT-549 breast
[6] = test system: CAKI-1 renal
[7] = test system: COLO 205 colon
[8] = test system: DU-145 prostate
[9] = test system: EKVX NSCLC
[10] = test system: HCT-116 colon
[11] = test system: HCT-15 colon
[12] = test system: HL-60(TB) leukemia
[13] = test system: HOP-62 NSCLC
[14] = test system: HOP-92 NSCLC
[15] = test system: HS 578T breast
[16] = test system: HT29 colon
[17] = test system: IGROV1 ovarian
[18] = test system: K-562 leukemia
[19] = test system: KM12 colon
[20] = test system: M14 melanoma
[21] = test system: MALME-3M melanoma
[22] = test system: MCF7 breast
[23] = test system: MDA-MB-231 breast
[24] = test system: MDA-MB-435 melanoma
[25] = test system: MDA-MB-468 breast
[26] = test system: MOLT-4 leukemia
[27] = test system: NCI-H226 lung

`COc1cc(C(=O)O)ccc1NC(=O)[C@@H]1N[C@@H](CC(C)(C)C)[C@](C#N)(c2ccc(Cl)cc2F)[C@H]1c1cccc(Cl)c1F` showed a GI50 [1] of 3.54 µM, a TGI [1] of 13.7 µM and a GI50 [2] of 0.0406 µM. For the same compound, the TGI [2] was 4.26 µM, the GI50 [3] was 0.195 µM and the TGI [3] was 4.76 µM. The GI50 [4] was 0.03 µM, the TGI [4] was 1.49 µM and the GI50 [5] was 3.03 µM. It also gave a TGI [5] of 6.21 µM, a GI50 [6] of 0.0193 µM and a TGI [6] of 13.7 µM. It also gave a GI50 [7] of 5.06 µM, a TGI [7] of 18.1 µM and a GI50 [8] of 5.75 µM. It also gave a TGI [8] of 17.5 µM, a GI50 [9] of 5.88 µM and a GI50 [10] of 0.0526 µM. It also gave a TGI [10] of 1.85 µM, a GI50 [11] of 3.51 µM and a GI50 [12] of 2.07 µM. It also gave a TGI [12] of 3.51 µM, a GI50 [13] of 8.06 µM and a GI50 [14] of 1.94 µM. For the same compound, the TGI [14] was 4.35 µM, the GI50 [15] was 3.75 µM and the TGI [15] was 11.9 µM. The GI50 [16] was 4.23 µM, the TGI [16] was 13.1 µM and the GI50 [17] was 2.63 µM. The TGI [17] was 13.8 µM, the GI50 [18] was 4.19 µM and the TGI [18] was 13.9 µM. For the same compound, the GI50 [19] was 0.0634 µM, the TGI [19] was 1.38 µM and the GI50 [20] was 1.98 µM. For the same compound, the TGI [20] was 11.2 µM, the GI50 [21] was 0.0869 µM and the TGI [21] was 11.9 µM. The GI50 [22] was 0.0339 µM, the TGI [22] was 1.04 µM and the GI50 [23] was 3.48 µM. For the same compound, the TGI [23] was 12 µM, the GI50 [24] was 3.71 µM and the TGI [24] was 12.2 µM. For the same compound, the GI50 [25] was 3.79 µM, the GI50 [26] was < 0.01 µM and the TGI [26] was 0.0195 µM. For the same compound, the GI50 [27] was 0.0202 µM.

Reference: PubChem BioAssay (NCI)
